Molecules are shown by their SMILES. Several values for one entry are separate records, joined by “and”; a condition that tells them apart may be missing. Identical values can stand only once.

This test deals with T1, Aldo-keto reductase family 1 member C3 (Homo sapiens, UniProt P42330).
T1 sequence (P42330 whole entry): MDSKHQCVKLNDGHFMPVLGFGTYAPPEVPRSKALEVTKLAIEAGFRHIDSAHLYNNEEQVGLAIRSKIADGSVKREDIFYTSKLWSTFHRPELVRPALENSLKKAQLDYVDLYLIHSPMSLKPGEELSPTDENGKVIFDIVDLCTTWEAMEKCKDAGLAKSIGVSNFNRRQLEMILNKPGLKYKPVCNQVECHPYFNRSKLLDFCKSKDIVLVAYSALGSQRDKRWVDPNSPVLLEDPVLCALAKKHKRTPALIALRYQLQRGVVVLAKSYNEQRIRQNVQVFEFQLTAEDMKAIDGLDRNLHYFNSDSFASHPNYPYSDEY
The test is described as follows: Inhibitory Activity Assay: Essentially, the enzyme activity is measured by quantification of the Coumberol from Coumberone (Halim, M., Yee, D. J., and Sames, D., J. AM. CHEM. SOC. 130, 14123-14128 (2008) and Yee, D. J., Balsanek, V., Bauman, D. R., Penning, T. M., and Sames, D., Proc. Natl. Acad. Sci. USA 103, 13304-13309 (2006)). In this test, the increase of the highly fluorescent Coumberol by NADPH⿿(nicotinamide adenine dinucleotide phosphate)-dependent reduction of the non-fluorescent Coumberone by AKR1C3 can be determined.The enzyme used was recombinant human AKR1C3 (Aldo-keto reductase family 1 member C3) (GenBank Accession No. NM_003739). This was expressed in E. coli as GST (glutathione S transferase) fusion protein and purified by glutathione Sepharose affinity chromatography. The GST was removed by digestion with thrombin and subsequent size exclusion chromatography (Dufort, I., Rheault, P., Huang, X F., Soucy, P., and Luu-The, V., Endocrinology 140, 568-574 (1999)). […]. (Size exclusion chromatography separates by hydrodynamic size, large species first.)

What is called IC50 is the concentration that inhibits the measured activity by half. `C[C@]12CC[C@@H]3c4ccc(C(=O)NCC5(C(=O)O)CC5)cc4CC[C@H]3[C@@H]1CC=C2c1cncc(F)c1`: the IC50 is 9.2 nM and 10.2 nM.
